# Measurements taken from patent US20230293526A1, “METHOD FOR TREATING CANCER WITH A REVERSE TRANSCRIPTASE INHIBITOR” (PrimeFour Therapeutics, Inc., priority 2020, published 2023).
# Columns and labels:
# cancer cell lines = assay: Cancer cell proliferation activity of representative nucleosides, CellTiterGlo 72 h (Example 7, Tables 8 and 9); type: cell-based
# How it was run: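 Percent viability was set against 0.1% DMSO (100%) and 10 μM staurosporine (0%), with signal from CellTiterGlo luminescence. Dose-response treatment began one day after seeding and lasted 72 h at 37° C under 5% or 10% CO2, with 0.1% final DMSO.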
# human LINE-1 = assay: Human LINE-1 (L1) retrotransposition dual-luciferase reporter assay in HeLa cells; type: cell-based; conditions: Homo sapiens, HeLa, 72 h, read-out: Human LINE-1 IC50 (Human L1 activity inhibition)
# Procedure: Representative compounds were tested for inhibition of retrotransposition activity of human LINE-1 (L1) retrotransposition reporter assay in HeLa cells according to the following procedure.
# Human Cervical Adenocarcinoma Cells (HeLa) were cultured in Dulbecco's Modified Eagle's Medium (DMEM) containing 4500 mg/L glucose, L-glutamine, sodium pyruvate and sodium bicarbonate, supplemented with 10% of heat inactivated fetal bovine serum (FBS). Cells were grown at 37° C. in an atmosphere of 5% CO2. The dual luciferase-encoding plasmid pYX017 was provided by Prof Wenfeng An (Xie, et al., 2011, Nucleic Acids Res).
# The reporter assay was performed in 96-well white, optical bottom plates (Thermo Fisher, 165306). 24 hours prior to transfection, HeLa cells were seeded in a density of 2,500 cells per well, in 50 μL of DMEM, 10% FBS media volume. Cells were incubated at 37° C. in an atmosphere of 5% CO2. Seeding was optimized to achieve approximately 30% cell confluency on the day of transfection. A transfection mix was prepared by combining transfection reagent FuGENE® HD (Promega, E2311) and plasmid DNA (100 ng per well) in a 3:1 ratio, in OpiMEM media (Thermo Fisher, 31985062). Next, 5 μL of the transfection mix was combined with 20 μL of DMEM, 10% FBS media, and 25 μL of this mix was added into each well of an assay plate. In each assay plate one column remained untransfected to serve as a blank luminescence signal.
# Serial dilution of test compounds was performed in DMSO and transferred to medium. Next, 25 μL of media-diluted compounds series were transferred to an assay plate containing cells and transfection media. The final concentration of DMSO in treated wells was 0.2%. Serial dilutions of compounds were added to an assay plate immediately after transfection. Compounds were tested in triplicates. The assay plate was then incubated with transfection reagent and compounds at 37° C. in an atmosphere of 5% CO2 for 72 hours.
# Luciferase reporter activity was quantified with the Dual-Luciferase® Reporter Assay System (Promega) following the manufacturer's manual, with a passive lysis buffer volume increased to 30 μL and lysis incubation time increased to 20 min at room temperature with gentle shaking, to ensure complete cell lysis. Luminescence was measured using a SpectraMax i3×Multi-Mode Microplate Reader, with integration times of 100 ms and 10 ms applied to measure FLuc and RLuc signals, respectively. Relative LNE-1 activity was calculated as Firefly signal/Renilla signal*10,000. In order to determine IC50 values for each compound, dose response data were fit to a logistic using non-linear regression.
compound,measurement,setting,value
"C#C[C@]1(CO)O[C@@H](n2cnc3c(N)nc(F)nc32)C[C@@H]1O [Islatravir (EFdA), Islatravir, reference compound]",IC50,"cancer cell lines; 72 h, 5637, 72 h (Table 9)",2.57 µM
same,IC50,"cancer cell lines; 72 h, CLS439, 72 h (Table 9)",> 50 µM
same,IC50,"cancer cell lines; 72 h, HS729, 72 h (Table 9)",4.24 µM
same,IC50,"cancer cell lines; 72 h, J82, 72 h (Table 9)",5.43 µM
same,IC50,"cancer cell lines; 72 h, JAR, 72 h (Table 9)",5.41 µM
same,IC50,"cancer cell lines; 72 h, MT3, 72 h (Table 9)",2.64 µM
same,IC50,"cancer cell lines; 72 h, PC3, 72 h (Table 9)",3.12 µM
same,IC50,"cancer cell lines; 72 h, RD, 72 h (Table 9)",3.3 µM
same,IC50,"cancer cell lines; 72 h, T24, 72 h (Table 9)",2.68 µM
same,IC50,"cancer cell lines; Homo sapiens, 22Rv1, 72 h, 22RV1, 72 h (Table 9)",> 50 µM
same,IC50,"cancer cell lines; Homo sapiens, 786-0, 72 h, 786O, 72 h (Table 9)",3.31 µM
same,IC50,"cancer cell lines; Homo sapiens, A204, 72 h, A204, 72 h (Table 9)",1.46 µM
same,IC50,"cancer cell lines; Homo sapiens, A549, 72 h, A549, 72 h (Table 9)",2.98 µM
same,IC50,"cancer cell lines; Homo sapiens, A673, 72 h, A673, 72 h (Table 9)",4.57 µM
same,IC50,"cancer cell lines; Homo sapiens, A2780, 72 h, A2780, 72 h (Table 9)",4.93 µM
same,IC50,"cancer cell lines; Homo sapiens, A-375, 72 h, A375, 72 h (Table 9)",2.69 µM
same,IC50,"cancer cell lines; Homo sapiens, A-431, 72 h, A431, 72 h (Table 9)",2.87 µM
same,IC50,"cancer cell lines; Homo sapiens, ACHN, 72 h, 72 h (Table 9)",2.48 µM
same,IC50,"cancer cell lines; Homo sapiens, ASPC1, 72 h, ASPC1, 72 h (Table 9)",4.97 µM
same,IC50,"cancer cell lines; Homo sapiens, BT-20, 72 h, BT20, 72 h (Table 9)",2.79 µM
same,IC50,"cancer cell lines; Homo sapiens, BXPC-3, 72 h, BXPC3, 72 h (Table 9)",2.77 µM
same,IC50,"cancer cell lines; Homo sapiens, C-33-A, 72 h, C33A, 72 h (Table 9)",2.65 µM
same,IC50,"cancer cell lines; Homo sapiens, CAKI-1, 72 h, CAKI1, 72 h (Table 9)",0.69 µM
same,IC50,"cancer cell lines; Homo sapiens, COLO 205, 72 h, COLO205, 72 h (Table 9)",4.98 µM
same,IC50,"cancer cell lines; Homo sapiens, COLO-678, 72 h, COLO678, 72 h (Table 9)",3.11 µM
same,IC50,"cancer cell lines; Homo sapiens, Ca-Ski, 72 h, CASKI, 72 h (Table 9)",5.31 µM
same,IC50,"cancer cell lines; Homo sapiens, Caco-2, 72 h, CACO2, 72 h (Table 9)",> 50 µM
same,IC50,"cancer cell lines; Homo sapiens, Calu-6, 72 h, CALU6, 72 h (Table 9)",5.3 µM
same,IC50,"cancer cell lines; Homo sapiens, DLD-1, 72 h, DLD1, 72 h (Table 9)",> 50 µM
same,IC50,"cancer cell lines; Homo sapiens, DU-145, 72 h, DU145, 72 h (Table 9)",2.53 µM
same,IC50,"cancer cell lines; Homo sapiens, EFO-21, 72 h, EFO21, 72 h (Table 9)",4.62 µM
same,IC50,"cancer cell lines; Homo sapiens, EJ-28, 72 h, EJ28, 72 h (Table 9)",5.71 µM
same,IC50,"cancer cell lines; Homo sapiens, Granta-519, 72 h, GRANTA-519, 72 h (Table 9)",1.68 µM
same,IC50,"cancer cell lines; Homo sapiens, HCT-15, 72 h, HCT15, 72 h (Table 9)",5.9 µM
same,IC50,"cancer cell lines; Homo sapiens, HCT-116, 72 h, HCT116, 72 h (Table 9)",4.69 µM
same,IC50,"cancer cell lines; Homo sapiens, HEK293, 72 h, HEK293, 72 h (Table 9)",4.16 µM
same,IC50,"cancer cell lines; Homo sapiens, HL-60, 72 h, HL-60, 72 h (Table 9)",3.49 µM
same,IC50,"cancer cell lines; Homo sapiens, HT-29, 72 h, HT29, 72 h (Table 9)",4.63 µM
same,IC50,"cancer cell lines; Homo sapiens, HT-1080, 72 h, HT1080, 72 h (Table 9)",3.19 µM
same,IC50,"cancer cell lines; Homo sapiens, HeLa, 72 h, 72 h (Table 9)",2.98 µM
same,IC50,"cancer cell lines; Homo sapiens, HepG2, 72 h, HEPG2, 72 h (Table 9)",3.14 µM
same,IC50,"cancer cell lines; Homo sapiens, Hs-578T, 72 h, HS578T, 72 h (Table 9)",2.94 µM
same,IC50,"cancer cell lines; Homo sapiens, IGROV-1, 72 h, IGROV1, 72 h (Table 9)",3.03 µM
same,IC50,"cancer cell lines; Homo sapiens, IMR-90, 72 h, IMR90, 72 h (Table 9)",2.46 µM
same,IC50,"cancer cell lines; Homo sapiens, JEG-3, 72 h, JEG3, 72 h (Table 9)",3.95 µM
same,IC50,"cancer cell lines; Homo sapiens, JIMT-1, 72 h, JIMT1, 72 h (Table 9)",1.58 µM
same,IC50,"cancer cell lines; Homo sapiens, K562, 72 h, K-562, 72 h (Table 9)",4.46 µM
same,IC50,"cancer cell lines; Homo sapiens, Kasumi 1, 72 h, KASUMI-1, 72 h (Table 9)",0.96 µM
same,IC50,"cancer cell lines; Homo sapiens, L-363, 72 h, L-363, 72 h (Table 9)",3.21 µM
same,IC50,"cancer cell lines; Homo sapiens, LoVo, 72 h, 72 h (Table 9)",2.79 µM
same,IC50,"cancer cell lines; Homo sapiens, MCF7, 72 h, MCF7, 72 h (Table 9)",> 50 µM
same,IC50,"cancer cell lines; Homo sapiens, MDA-MB-231, 72 h, MDAMB231, 72 h (Table 9)",2.56 µM
same,IC50,"cancer cell lines; Homo sapiens, MDA-MB-435, 72 h, MDAMB435, 72 h (Table 9)",> 50 µM
same,IC50,"cancer cell lines; Homo sapiens, MDA-MB-436, 72 h, MDAMB436, 72 h (Table 9)",3.59 µM
same,IC50,"cancer cell lines; Homo sapiens, MDA-MB-468, 72 h, MDAMB468, 72 h (Table 9)",4 µM
same,IC50,"cancer cell lines; Homo sapiens, MG-63, 72 h, MG63, 72 h (Table 9)",> 50 µM
same,IC50,"cancer cell lines; Homo sapiens, MHH-ES-1, 72 h, MHHES1, 72 h (Table 9)",3.51 µM
same,IC50,"cancer cell lines; Homo sapiens, MIA PaCa-2, 72 h, MIAPACA2, 72 h (Table 9)",> 50 µM
same,IC50,"cancer cell lines; Homo sapiens, MINO, 72 h, 72 h (Table 9)",1.34 µM
same,IC50,"cancer cell lines; Homo sapiens, MV4-11, 72 h, MV4-11, 72 h (Table 9)",2.39 µM
same,IC50,"cancer cell lines; Homo sapiens, NCI-H23, 72 h, NCI-H23, 72 h (Table 9)",2.96 µM
same,IC50,"cancer cell lines; Homo sapiens, NCI-H82, 72 h, NCIH82, 72 h (Table 9)",2.73 µM
same,IC50,"cancer cell lines; Homo sapiens, NCI-H292, 72 h, NCIH292, 72 h (Table 9)",3.68 µM
same,IC50,"cancer cell lines; Homo sapiens, NCI-H460, 72 h, NCIH460, 72 h (Table 9)",3.31 µM
same,IC50,"cancer cell lines; Homo sapiens, OVCAR-3, 72 h, OVCAR3, 72 h (Table 9)",4.15 µM
same,IC50,"cancer cell lines; Homo sapiens, OVCAR-4, 72 h, OVCAR4, 72 h (Table 9)",3.1 µM
same,IC50,"cancer cell lines; Homo sapiens, PANC-1, 72 h, PANC1, 72 h (Table 9)",> 50 µM
same,IC50,"cancer cell lines; Homo sapiens, PLC-PRF-5, 72 h, PLCPRF5, 72 h (Table 9)",> 50 µM
same,IC50,"cancer cell lines; Homo sapiens, Panc1005, 72 h, PANC1005, 72 h (Table 9)",3.87 µM
same,IC50,"cancer cell lines; Homo sapiens, Ramos, 72 h, 72 h (Table 9)",1.88 µM
same,IC50,"cancer cell lines; Homo sapiens, SAOS-2, 72 h, SAOS2, 72 h (Table 9)",1.65 µM
same,IC50,"cancer cell lines; Homo sapiens, SF-268, 72 h, SF268, 72 h (Table 9)",> 50 µM
same,IC50,"cancer cell lines; Homo sapiens, SF-295, 72 h, SF295, 72 h (Table 9)",2.91 µM
same,IC50,"cancer cell lines; Homo sapiens, SK-BR-3, 72 h, SKBR3, 72 h (Table 9)",1.76 µM
same,IC50,"cancer cell lines; Homo sapiens, SK-HEP1, 72 h, SKHEP1, 72 h (Table 9)",2.66 µM
same,IC50,"cancer cell lines; Homo sapiens, SK-LMS-1, 72 h, SKLMS1, 72 h (Table 9)",3.35 µM
same,IC50,"cancer cell lines; Homo sapiens, SK-MEL-5, 72 h, SKMEL5, 72 h (Table 9)",6.02 µM
same,IC50,"cancer cell lines; Homo sapiens, SK-MEL-28, 72 h, SKMEL28, 72 h (Table 9)",3.84 µM
same,IC50,"cancer cell lines; Homo sapiens, SK-N-AS, 72 h, SKNAS, 72 h (Table 9)",2.98 µM
same,IC50,"cancer cell lines; Homo sapiens, SK-N-SH, 72 h, SKNSH, 72 h (Table 9)",3.37 µM
same,IC50,"cancer cell lines; Homo sapiens, SK-OV-3, 72 h, SKOV3, 72 h (Table 9)",3.25 µM
same,IC50,"cancer cell lines; Homo sapiens, SNB-75, 72 h, SNB75, 72 h (Table 9)",3.27 µM
same,IC50,"cancer cell lines; Homo sapiens, SU-DHL10, 72 h, SU-DHL-10, 72 h (Table 9)",2.6 µM
same,IC50,"cancer cell lines; Homo sapiens, SU-DHL-6, 72 h, SU-DHL-6, 72 h (Table 9)",1.68 µM
same,IC50,"cancer cell lines; Homo sapiens, SW-620, 72 h, SW620, 72 h (Table 9)",3.81 µM
same,IC50,"cancer cell lines; Homo sapiens, TE-671, 72 h, TE671, 72 h (Table 9)",> 50 µM
same,IC50,"cancer cell lines; Homo sapiens, THP-1, 72 h, THP-1, 72 h (Table 9)",2.93 µM
same,IC50,"cancer cell lines; Homo sapiens, U2OS, 72 h, 72 h (Table 9)",2.53 µM
same,IC50,"cancer cell lines; Homo sapiens, U-87 MG, 72 h, U87MG, 72 h (Table 9)",2.75 µM
same,IC50,"cancer cell lines; Homo sapiens, UMUC3, 72 h, UMUC3, 72 h (Table 9)",3.53 µM
same,IC50,"cancer cell lines; Homo sapiens, UO-31, 72 h, UO31, 72 h (Table 9)",4.71 µM
same,IC50,"cancer cell lines; Homo sapiens, WSU-NHL, 72 h, 72 h (Table 9)",3.17 µM
same,IC50,"cancer cell lines; NCI-H358M, 72 h, NCIH358M, 72 h (Table 9)",0.73 µM
same,IC50,"cancer cell lines; PBMC, 72 h, 72 h (Table 9)",> 50 µM
same,IC50,"cancer cell lines; RD-ES, 72 h, RDES, 72 h (Table 9)",3.01 µM
same,IC50,human LINE-1,0.0011 µM
